# Test results taken from patent US8959984B2, “Proteome-wide quantification of small molecule binding to cellular target proteins” (priority 2007, dated 2015).
# Like-named read-outs stand apart in the source and are kept apart here.
# Columns and labels:
# [1] = biological target: T1, MAP3K2 (Homo sapiens, UniProt Q9Y2U5); assay: binding to immobilized V16742 (IVA1/IVA2, HeLa lysate, MS)
# T1 construct: endogenous in cells; host or cells: HeLa S3
# T1 sequence (Q9Y2U5 1-619): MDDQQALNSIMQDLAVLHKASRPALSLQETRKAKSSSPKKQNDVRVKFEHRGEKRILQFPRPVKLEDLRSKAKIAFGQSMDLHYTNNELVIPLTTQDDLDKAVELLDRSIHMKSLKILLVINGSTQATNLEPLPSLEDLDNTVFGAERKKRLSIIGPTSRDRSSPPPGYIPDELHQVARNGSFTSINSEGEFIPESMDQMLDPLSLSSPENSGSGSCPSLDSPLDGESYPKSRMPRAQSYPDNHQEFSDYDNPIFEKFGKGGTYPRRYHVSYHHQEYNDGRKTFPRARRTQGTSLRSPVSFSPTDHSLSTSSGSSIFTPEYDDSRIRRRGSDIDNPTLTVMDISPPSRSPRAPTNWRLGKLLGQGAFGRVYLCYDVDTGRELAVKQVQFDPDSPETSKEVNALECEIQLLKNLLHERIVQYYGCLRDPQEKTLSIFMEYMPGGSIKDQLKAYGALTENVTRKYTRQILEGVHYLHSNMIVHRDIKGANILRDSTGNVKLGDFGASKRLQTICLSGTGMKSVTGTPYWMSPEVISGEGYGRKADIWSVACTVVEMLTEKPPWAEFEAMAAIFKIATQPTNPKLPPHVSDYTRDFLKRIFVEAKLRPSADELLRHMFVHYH
# [2] = biological target: T2, Isoform 1 of Nicotinamide phosphoribosyltransferase (Homo sapiens, UniProt P43490); assay: as above
# T2 construct: endogenous in cells; host or cells: HeLa S3
# [3] = biological target: T3, DYRK1A (Homo sapiens, UniProt Q13627); assay: as above
# T3 construct: endogenous in cells; host or cells: HeLa S3
# [4] = biological target: BRD3 (Homo sapiens, UniProt Q15059); assay: as above
# [5] = biological target: CK1e (Homo sapiens, UniProt P49674); assay: as above
# Method: Using the three populations of SILAC-labelled cells and the three different inhibitor resins, two parallel experiments termed as IVA1 (In Vitro Association, Setting 1) and IVA2 (In Vitro Association, Setting 2) were performed. […] In IVA2, SILAC encoded HeLa cells lysates were subjected to two parallel rounds of consecutive affinity purification at the highest ligand density where the supernatant left behind after the first IVA was used for the second round of IVA. An additional incubation of Hela cell lysate with control beads devoid of immobilized inhibitor was also performed to distinguish background binders.
# A common IPI identifier template was assigned to peptides based on the MASCOT html-output file for the IVA2 setting in first experiment. The proteins hits identified based on unique peptides were filtered for mass error and MASCOT score. Eventually, the hits identified in both first and second IVA2 experiments were quantified for IVA2 setting of first experiment by MSQuant. […] A next round of sorting was done to filter out protein hits that are less than 50% enriched in the IVA second round compared to IVA first round. This is because at enrichment below 50%, there could be significant errors in deducing kd values for the corresponding targets. […] The same set of targets was also quantified in IVA2 and IVA1 settings of an independent second experiment.
# [6] = biological target: p38a (MAPK14, IPI00002857) (Homo sapiens, UniProt Q16539); assay: gefitinib competition against AX14596 beads (HeLa lysate, SILAC MS); assay type: binding
# [7] = biological target: NUDT12 (Homo sapiens, UniProt Q9BQG2)
# [8] = biological target: SNRPE (Homo sapiens, UniProt P62304)
# [9] = biological target: T4, SgK085 (MYLK3) (Homo sapiens, UniProt Q32MK0)
# T4 sequence (Q32MK0 1-819): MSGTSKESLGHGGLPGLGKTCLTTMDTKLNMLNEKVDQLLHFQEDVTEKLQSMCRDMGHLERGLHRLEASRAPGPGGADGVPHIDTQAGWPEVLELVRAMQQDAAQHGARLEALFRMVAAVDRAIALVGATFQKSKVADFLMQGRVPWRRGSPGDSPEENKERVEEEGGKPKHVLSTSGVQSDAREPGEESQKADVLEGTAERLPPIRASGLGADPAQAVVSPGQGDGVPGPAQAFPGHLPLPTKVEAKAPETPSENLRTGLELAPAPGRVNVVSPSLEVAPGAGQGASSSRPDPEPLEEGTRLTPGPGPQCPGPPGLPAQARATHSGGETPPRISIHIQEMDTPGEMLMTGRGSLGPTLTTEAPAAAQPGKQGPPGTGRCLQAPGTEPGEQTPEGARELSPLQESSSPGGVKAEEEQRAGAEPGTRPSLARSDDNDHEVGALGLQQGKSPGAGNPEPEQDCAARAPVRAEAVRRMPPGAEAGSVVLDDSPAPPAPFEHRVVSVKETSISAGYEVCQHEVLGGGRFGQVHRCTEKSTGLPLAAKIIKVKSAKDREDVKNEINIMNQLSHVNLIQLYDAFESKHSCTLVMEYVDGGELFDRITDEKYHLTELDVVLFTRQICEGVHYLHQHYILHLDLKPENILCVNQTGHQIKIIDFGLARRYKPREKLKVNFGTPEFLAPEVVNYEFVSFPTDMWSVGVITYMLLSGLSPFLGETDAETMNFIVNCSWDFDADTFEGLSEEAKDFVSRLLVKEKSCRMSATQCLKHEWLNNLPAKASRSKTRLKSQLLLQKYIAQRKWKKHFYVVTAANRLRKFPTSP
# [10] = biological target: MNK1 (MKNK1) (Homo sapiens, UniProt Q9BUB5)
# [11] = average of two experiments, read-out: Kd Avg
# NUDT12, sequence (Q9BQG2 whole entry): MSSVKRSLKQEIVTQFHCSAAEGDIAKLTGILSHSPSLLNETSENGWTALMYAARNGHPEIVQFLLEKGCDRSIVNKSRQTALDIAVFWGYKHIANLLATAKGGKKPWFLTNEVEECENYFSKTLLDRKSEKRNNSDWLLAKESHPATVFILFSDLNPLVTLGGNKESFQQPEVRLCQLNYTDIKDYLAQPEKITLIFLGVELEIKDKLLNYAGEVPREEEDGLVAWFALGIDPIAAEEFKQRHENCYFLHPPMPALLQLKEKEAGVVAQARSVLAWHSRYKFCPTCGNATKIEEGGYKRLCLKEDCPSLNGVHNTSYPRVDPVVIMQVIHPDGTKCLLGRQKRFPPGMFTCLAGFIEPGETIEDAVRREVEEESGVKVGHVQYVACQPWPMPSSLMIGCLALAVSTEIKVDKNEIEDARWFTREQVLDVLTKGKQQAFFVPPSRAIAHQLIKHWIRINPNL
# MNK1 (MKNK1), sequence (Q9BUB5 whole entry): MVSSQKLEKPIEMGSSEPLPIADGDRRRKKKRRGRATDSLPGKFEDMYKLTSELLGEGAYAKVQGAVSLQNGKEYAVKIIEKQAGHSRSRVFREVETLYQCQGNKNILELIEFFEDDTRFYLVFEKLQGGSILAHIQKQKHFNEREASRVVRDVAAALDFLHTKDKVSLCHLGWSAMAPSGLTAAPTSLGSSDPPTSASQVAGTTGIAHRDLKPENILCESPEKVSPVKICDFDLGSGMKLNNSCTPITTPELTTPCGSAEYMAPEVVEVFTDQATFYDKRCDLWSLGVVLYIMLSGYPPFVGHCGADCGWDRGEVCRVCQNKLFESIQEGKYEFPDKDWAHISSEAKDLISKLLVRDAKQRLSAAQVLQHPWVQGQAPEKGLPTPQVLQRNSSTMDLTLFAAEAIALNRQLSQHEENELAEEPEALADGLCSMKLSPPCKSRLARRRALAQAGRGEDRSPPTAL
# SNRPE, sequence (P62304 whole entry): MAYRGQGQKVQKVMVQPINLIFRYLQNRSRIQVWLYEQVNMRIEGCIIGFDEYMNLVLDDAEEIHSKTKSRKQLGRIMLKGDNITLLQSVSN
# CK1e, sequence (P49674 whole entry): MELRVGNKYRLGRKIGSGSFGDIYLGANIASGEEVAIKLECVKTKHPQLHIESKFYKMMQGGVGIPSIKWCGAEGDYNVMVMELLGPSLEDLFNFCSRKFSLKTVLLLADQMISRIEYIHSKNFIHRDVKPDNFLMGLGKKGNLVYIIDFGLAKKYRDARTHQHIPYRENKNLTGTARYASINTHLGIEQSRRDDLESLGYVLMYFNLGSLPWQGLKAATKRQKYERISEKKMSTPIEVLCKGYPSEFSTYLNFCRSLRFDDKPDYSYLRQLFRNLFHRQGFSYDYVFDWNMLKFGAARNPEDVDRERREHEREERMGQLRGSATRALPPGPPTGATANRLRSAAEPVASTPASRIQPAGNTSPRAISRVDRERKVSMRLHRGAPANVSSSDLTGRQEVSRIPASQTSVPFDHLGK
# T2 sequence (P43490 whole entry, canonical isoform): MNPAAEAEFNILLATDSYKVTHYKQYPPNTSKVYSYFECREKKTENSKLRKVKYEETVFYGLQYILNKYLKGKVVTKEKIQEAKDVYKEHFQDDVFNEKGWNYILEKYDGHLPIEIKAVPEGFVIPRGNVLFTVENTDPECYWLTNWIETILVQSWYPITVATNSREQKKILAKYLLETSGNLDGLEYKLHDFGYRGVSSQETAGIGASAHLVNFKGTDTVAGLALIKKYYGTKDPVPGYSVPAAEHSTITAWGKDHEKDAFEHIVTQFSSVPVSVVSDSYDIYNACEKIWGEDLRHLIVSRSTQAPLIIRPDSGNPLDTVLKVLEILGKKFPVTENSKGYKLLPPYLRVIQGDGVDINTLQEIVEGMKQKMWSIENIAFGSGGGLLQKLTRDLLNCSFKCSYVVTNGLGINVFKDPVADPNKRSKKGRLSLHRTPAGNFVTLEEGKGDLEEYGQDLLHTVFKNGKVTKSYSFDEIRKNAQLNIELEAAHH
# BRD3, sequence (Q15059 whole entry): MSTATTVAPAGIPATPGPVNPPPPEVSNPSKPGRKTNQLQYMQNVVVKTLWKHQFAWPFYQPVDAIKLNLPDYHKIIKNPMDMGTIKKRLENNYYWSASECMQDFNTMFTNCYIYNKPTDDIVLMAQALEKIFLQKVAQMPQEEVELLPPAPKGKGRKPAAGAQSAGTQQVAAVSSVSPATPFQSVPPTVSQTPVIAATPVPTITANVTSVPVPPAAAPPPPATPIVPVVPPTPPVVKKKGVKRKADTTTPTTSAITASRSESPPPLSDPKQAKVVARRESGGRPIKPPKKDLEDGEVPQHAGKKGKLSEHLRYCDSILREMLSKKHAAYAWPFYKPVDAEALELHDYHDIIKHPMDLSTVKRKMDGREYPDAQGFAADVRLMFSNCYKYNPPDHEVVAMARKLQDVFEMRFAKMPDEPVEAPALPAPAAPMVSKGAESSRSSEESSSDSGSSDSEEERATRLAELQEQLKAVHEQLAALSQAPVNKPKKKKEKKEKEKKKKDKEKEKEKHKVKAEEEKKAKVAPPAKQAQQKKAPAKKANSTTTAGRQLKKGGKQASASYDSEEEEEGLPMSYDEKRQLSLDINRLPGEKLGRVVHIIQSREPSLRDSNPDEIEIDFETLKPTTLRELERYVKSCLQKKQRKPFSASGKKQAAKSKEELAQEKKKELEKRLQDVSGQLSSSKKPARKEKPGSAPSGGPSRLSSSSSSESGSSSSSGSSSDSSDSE
# p38a (MAPK14, IPI00002857), sequence (Q16539 whole entry): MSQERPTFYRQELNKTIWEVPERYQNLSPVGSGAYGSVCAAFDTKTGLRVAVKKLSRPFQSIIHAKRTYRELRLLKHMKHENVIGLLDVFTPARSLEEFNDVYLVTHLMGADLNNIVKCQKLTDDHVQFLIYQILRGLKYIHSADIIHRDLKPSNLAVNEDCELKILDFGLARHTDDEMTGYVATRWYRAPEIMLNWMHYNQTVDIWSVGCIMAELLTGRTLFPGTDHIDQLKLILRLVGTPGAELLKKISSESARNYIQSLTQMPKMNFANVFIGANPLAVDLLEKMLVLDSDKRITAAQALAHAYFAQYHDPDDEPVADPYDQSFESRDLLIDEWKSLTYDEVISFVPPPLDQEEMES
smiles,measurement,setting,value
CC(C)n1c(=O)ccc2cnc(Nc3ccc(OCCN)cc3)nc21 [V16742],Percent bound at various 16742 conc,"[1]; Experiment 1, 1.87 μM 16742",4.06%
same,Percent bound at various 16742 conc,"[1]; Experiment 1, 8.74 μM 16742",14.72%
same,Percent bound at various 16742 conc,"[1]; Experiment 1, 52 μM 16742",49.07%
same,Kd,"[1]; Experiment 1, read-out: Kd",53.2 µM
same,Percent bound at various 16742 conc,"[1]; Experiment 2, 1.87 μM 16742",3.52%
same,Percent bound at various 16742 conc,"[1]; Experiment 2, 8.74 μM 16742",14.47%
same,Percent bound at various 16742 conc,"[1]; Experiment 2, 52 μM 16742",48.40%
same,Kd,"[1]; Experiment 2, read-out: Kd",54.7 µM
same,Kd,[1]; [11],53.9 µM
same,Percent bound at various 16742 conc,"[2]; Experiment 1, 1.87 μM 16742",2.80%
same,Percent bound at various 16742 conc,"[2]; Experiment 1, 8.74 μM 16742",2.70%
same,Percent bound at various 16742 conc,"[2]; Experiment 1, 52 μM 16742",54.03%
same,Kd,"[2]; Experiment 1, read-out: Kd",54.8 µM
same,Percent bound at various 16742 conc,"[2]; Experiment 2, 1.87 μM 16742",2.28%
same,Percent bound at various 16742 conc,"[2]; Experiment 2, 8.74 μM 16742",3.40%
same,Percent bound at various 16742 conc,"[2]; Experiment 2, 52 μM 16742",41.68%
same,Kd,"[2]; Experiment 2, read-out: Kd",80.3 µM
same,Kd,[2]; [11],67.5 µM
same,Percent bound at various 16742 conc,"[3]; Experiment 1, 1.87 μM 16742",5.75%
same,Percent bound at various 16742 conc,"[3]; Experiment 1, 8.74 μM 16742",14.82%
same,Percent bound at various 16742 conc,"[3]; Experiment 1, 52 μM 16742",52.16%
same,Kd,"[3]; Experiment 1, read-out: Kd",47.8 µM
same,Percent bound at various 16742 conc,"[3]; Experiment 2, 1.87 μM 16742",1.08%
same,Percent bound at various 16742 conc,"[3]; Experiment 2, 8.74 μM 16742",3.76%
same,Percent bound at various 16742 conc,"[3]; Experiment 2, 52 μM 16742",28.11%
same,Kd,"[3]; Experiment 2, read-out: Kd",137 µM
same,Kd,[3]; [11],92.5 µM
CC(C)n1c(=O)ccc2cnc(Nc3ccc(OCCN)cc3)nc21 [compound 16742],Percent bound at 1.87 μM 16742 conc,[4]; EXPERIMENT 1,0.00%
same,Percent bound at 8.74 μM 16742 conc,[4]; EXPERIMENT 1,0.00%
same,Percent bound at 52 μM 16742 conc,[4]; EXPERIMENT 1,71.55%
same,Kd,"[4]; EXPERIMENT 1, read-out: Kd",37 µM
same,Percent bound at 1.87 μM 16742 conc,[4]; EXPERIMENT 2,8.24%
same,Percent bound at 8.74 μM 16742 conc,[4]; EXPERIMENT 2,11.86%
same,Percent bound at 52 μM 16742 conc,[4]; EXPERIMENT 2,65.82%
same,Kd,"[4]; EXPERIMENT 2, read-out: Kd",33.9 µM
same,Kd,[4]; read-out: Kd Avg,35.4 µM
same,Kd,[5],13 µM
same,Percent bound at 1.87 μM 16742 conc,"[5]; CK1e, EXPERIMENT 1",6.91%
same,Percent bound at 8.74 μM 16742 conc,"[5]; CK1e, EXPERIMENT 1",34.02%
same,Percent bound at 52 μM 16742 conc,"[5]; CK1e, EXPERIMENT 1",79.64%
same,Percent bound at 1.87 μM 16742 conc,"[5]; CK1e, EXPERIMENT 2",7.41%
same,Percent bound at 8.74 μM 16742 conc,"[5]; CK1e, EXPERIMENT 2",37.16%
same,Percent bound at 52 μM 16742 conc,"[5]; CK1e, EXPERIMENT 2",88.21%
same,Kd,"[5]; Kd, CK1e",14.5 µM
same,Kd,"[5]; Kd, CK1e, EXPERIMENT 1",16.1 µM
COc1cc2ncnc(Nc3ccc(F)c(Cl)c3)c2cc1OCCCN1CCOCC1 [gefitinib],rAVERAGE (10 nM/0 nM Gef.),[6],0.88
same,rAVERAGE (100 nM/0 nM Gef.),[6],1.04
same,rAVERAGE (1000 nM/0 nM Gef.),[6],0.92
same,rAVERAGE (10000 nM/0 nM Gef.),[6],0.64
same,rAVERAGE (10 nM/0 nM Gef.),[7],1.04
same,rAVERAGE (100 nM/0 nM Gef.),[7],0.93
same,rAVERAGE (1000 nM/0 nM Gef.),[7],0.92
same,rAVERAGE (10000 nM/0 nM Gef.),[7],0.09
same,rAVERAGE (10 nM/0 nM Gef.),[8],0.70
same,rAVERAGE (100 nM/0 nM Gef.),[8],1.11
same,rAVERAGE (1000 nM/0 nM Gef.),[8],0.74
same,rAVERAGE (10000 nM/0 nM Gef.),[8],0.93
same,rAVERAGE (10 nM/0 nM Gef.),[9],0.97
same,rAVERAGE (100 nM/0 nM Gef.),[9],1.01
same,rAVERAGE (1000 nM/0 nM Gef.),[9],0.98
same,rAVERAGE (10000 nM/0 nM Gef.),[9],0.53
same,rAVERAGE (10 nM/0 nM Gef.),[10],0.76
same,rAVERAGE (100 nM/0 nM Gef.),[10],1.00
same,rAVERAGE (1000 nM/0 nM Gef.),[10],0.73
same,rAVERAGE (10000 nM/0 nM Gef.),[10],0.37
